Earlier results, collected in patent US8802627B2, “Fusion protein composed of matrix metalloproteinase-2 inhibitor peptide derived from amyloid-B precursor protein and tissue inhibitor of metalloproteinase-2” (Oriental Yeast Co., Ltd., priority 2008, dated 2014).

Key:
MMP-2 = target: T1, MMP-2 (Homo sapiens, UniProt P08253); conditions: prior art literature, J. Biol. Chem. 278, 14020-14028, 2003; read-out: reported IC50 upon MMP-2
T1 construct: which now consists of 551 amino acid residues is designated active MMP-2
T1 sequence (P08253 110-660): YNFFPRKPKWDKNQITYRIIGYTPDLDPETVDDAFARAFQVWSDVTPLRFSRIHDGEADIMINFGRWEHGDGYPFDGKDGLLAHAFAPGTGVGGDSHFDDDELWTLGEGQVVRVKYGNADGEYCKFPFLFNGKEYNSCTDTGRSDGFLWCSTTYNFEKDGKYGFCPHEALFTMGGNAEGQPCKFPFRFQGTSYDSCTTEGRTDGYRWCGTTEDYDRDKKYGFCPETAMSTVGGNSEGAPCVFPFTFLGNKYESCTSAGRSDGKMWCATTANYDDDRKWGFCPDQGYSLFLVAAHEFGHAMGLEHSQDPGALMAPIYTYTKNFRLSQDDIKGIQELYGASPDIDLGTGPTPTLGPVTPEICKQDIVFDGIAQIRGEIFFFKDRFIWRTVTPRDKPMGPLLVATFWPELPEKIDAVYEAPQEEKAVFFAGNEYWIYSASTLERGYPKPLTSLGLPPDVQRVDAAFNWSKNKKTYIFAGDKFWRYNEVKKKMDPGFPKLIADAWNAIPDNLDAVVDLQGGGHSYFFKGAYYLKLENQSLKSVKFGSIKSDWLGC

MMP-7 = target: T2, MMP-7 (Homo sapiens, UniProt P09237); conditions: prior art literature, J. Biol. Chem. 278, 14020-14028, 2003; read-out: reported IC50 upon MMP-7
T2 sequence (P09237 95-267): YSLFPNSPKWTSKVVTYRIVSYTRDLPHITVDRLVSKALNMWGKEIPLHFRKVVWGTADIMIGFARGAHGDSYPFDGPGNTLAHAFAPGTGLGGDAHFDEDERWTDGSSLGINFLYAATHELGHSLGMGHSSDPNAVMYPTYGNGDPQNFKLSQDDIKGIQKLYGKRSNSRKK

MMP-9 = MMP-9 (Homo sapiens, UniProt P14780); conditions: prior art literature, J. Biol. Chem. 278, 14020-14028, 2003; read-out: reported IC50 upon MMP-9
Sequence of MMP-9 (P14780 94-707): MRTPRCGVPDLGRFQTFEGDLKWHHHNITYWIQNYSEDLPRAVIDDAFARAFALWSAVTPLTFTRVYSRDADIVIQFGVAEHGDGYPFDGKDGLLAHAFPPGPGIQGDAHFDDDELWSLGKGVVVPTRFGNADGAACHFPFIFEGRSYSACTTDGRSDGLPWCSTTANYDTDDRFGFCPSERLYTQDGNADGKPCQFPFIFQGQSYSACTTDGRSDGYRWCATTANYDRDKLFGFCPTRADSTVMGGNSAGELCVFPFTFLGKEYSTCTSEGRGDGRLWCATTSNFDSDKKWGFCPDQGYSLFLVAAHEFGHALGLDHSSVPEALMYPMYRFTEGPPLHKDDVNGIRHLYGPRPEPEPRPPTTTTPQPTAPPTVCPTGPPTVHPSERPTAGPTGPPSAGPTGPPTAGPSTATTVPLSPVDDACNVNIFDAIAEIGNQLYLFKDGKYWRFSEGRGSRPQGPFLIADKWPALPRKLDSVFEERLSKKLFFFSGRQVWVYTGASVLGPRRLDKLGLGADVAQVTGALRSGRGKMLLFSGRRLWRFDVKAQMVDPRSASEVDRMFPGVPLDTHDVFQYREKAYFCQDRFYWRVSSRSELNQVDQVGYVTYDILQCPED

MT1-MMP catalytic domain = MT1-MMP catalytic domain (Homo sapiens, UniProt P50281); conditions: prior art literature, J. Biol. Chem. 278, 14020-14028, 2003; read-out: reported IC50 upon MT1-MMP catalytic domain

**Q.** For ISYGNDALMP [APP-IP], which IC50 (MMP-2) is on record?
**A.** 0.03 µM

**Q.** And the IC50 (MMP-7)?
**A.** 15 µM

**Q.** What about the IC50 (MMP-9) of the same sequence?
**A.** 20 µM

**Q.** What about the IC50 (MT1-MMP catalytic domain) of the same sequence?
**A.** 2 µM
